Source: patent US11505558B1, “Antiviral heterocyclic compounds” (Enanta Pharmaceuticals, Inc., priority 2019, dated 2022)

Legend:
[1] = tested on: genotype A, "Long" strain RSV; experiment: RSV-A assay (CPE, ATPlite readout in Hep-2 cells); format: cell-based; conditions: human respiratory syncytial virus, HEp-2, Hep-2 cells, genotype A "Long" strain RSV, MOI 0.1; read-out: Human RSV-A (“Long” strain) EC50
Procedure, shortened: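 Hep-2 cells (8,000/well) received 2-fold serial compound dilutions in duplicate and RSV Long strain at MOI 0.1. After 5 days' incubation, cell health was read as ATP by ATPlite luminescence, with virus-only and uninfected controls defining max and minimum CPE; EC50 reported.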

[2] = tested on: recombinant HMPV CAN97-83 (MPV-GFP1); experiment: HMPV antiviral assay (MPV-GFP1 eGFP fluorescence in Vero E6 cells); format: cell-based; conditions: human metapneumovirus, Vero C1008, 120 h, read-out: HMPV EC50
Experimental: HMPV antiviral activity was evaluated using a recombinant version of HMPV CAN97-83 engineered to contain the coding sequence for enhanced green fluorescence protein (eGFP) in the 3′ end of the virus genome (MPV-GFP1, ViraTree). Vero E6 cells ([…]) were seeded at a density of 12,000 cells/100 μL/well into 96-well cell plates one day prior to the assay. On the day of screening, the cell culture medium was aspirated from the wells and cells were washed twice with serum-free Eagle's Modified Essential Medium (EMEM, ATCC #) containing 1% penicillin-streptomycin (Invitrogen) (SF-EMEM). Cell washes were performed by dispensing 100 μL SF-EMEM per well and immediately aspirating the wash medium from the well. Following the second wash step, serum-free OptiMEM (Invitrogen, Cat No.) (SF-OptiMEM) containing 0.5 μg/mL TPCK-Trypsin (VENDOR) and 1% penicillin-streptomycin was added to the cells at 50 μL/well. Compounds were added into the 96-well plates using a JANUS automated liquid handling system (VENDOR). Compounds were initially diluted 1:50 into an intermediate 96-well plate containing SF-OptiMEM prior to transfer to the assay plate (25 μL/well). Each of the test compounds were tested in duplicate wells at final concentrations starting from 8 μM or 2 μM using ½ stepwise dilutions for a total of 8 points. Virus infection was performed by preparing a working stock of MPV-GFP1 at a multiplicity of infection (MOI) equal to 0.05/25 μL and aliquoting 25 μL of virus inoculum to the compound and positive control wells. SF-OptiMEM was added (25 μL/well) to the appropriate wells to serve as a virus-free negative control for the assay. The final DMSO concentration of all wells is 0.5%. Plates were incubated at 32° C., 5% CO2 for 5 days.
After 5 days incubation, eGFP fluorescence intensity was measured at […] using a Spectramax i3X plate reader (VENDOR). Percent viral inhibition was calculated using the following equation: y=[[…]−(XQ/XP)]×100 Where XQ is the fluorescence intensity measured in a well containing recombinant MPV-GFP1-infected, compound-treated cells and XP is the average fluorescence intensity measured in the wells containing untreated cells infected with recombinant virus. EC50 values were then calculated by non-linear regression using a four parameter curve logistic equation. The curve fit model employed was XLFit Dose Response One Site Model 200: y=(A+(B/(1+((x/C)^D)))) Where A is the minimum y value, B is the maximum y value, C is the log EC50 value, and D is the slope factor. […] EC50 ranges are as follows: A<0.5 μM; B>0.5 μM.

Structure (SMILES)	EC50 [1] [nM]	EC50 [2] [nM]
C[C@]1(C(N)=O)COc2c1cc([C@](O)(CNC(=O)c1cc(OC3CC3)c3ncccc3c1)C(F)(F)F)nc2-c1ccc(F)c(C#N)c1 [Example 84]	> 200	> 500
C[C@]1(C(N)=O)COc2c1cc([C@@](O)(CNC(=O)c1cc(OC3CC3)c3ncccc3c1)C(F)(F)F)nc2-c1ccc(F)c(C(F)(F)F)c1 [Example 85]	< 200	< 500
COc1cc(C(=O)NC[C@](O)(c2cc3c(c(-c4ccc(F)c(Cl)c4)n2)OC[C@]3(C)C(N)=O)C(F)(F)F)cc2cccnc12 [Example 86]	< 200	< 500
COc1cc(C(=O)NC[C@](O)(c2cc3c(c(-c4ccc(F)c(F)c4)n2)OC[C@]3(C)C(N)=O)C(F)(F)F)cc2cccnc12 [Example 87]	< 200	> 500
COc1cc(C(=O)NC[C@](O)(c2cc3c(c(-c4ccc(F)c(Cl)c4)n2)OC[C@]3(C)C(N)=O)C(F)(F)F)ccc1OC1CC1 [Example 88]	< 200	< 500
COc1cc(C(=O)NC[C@](O)(c2cc3c(c(-c4ccc(F)c(F)c4)n2)OC[C@]3(C)C(N)=O)C(F)(F)F)ccc1OC1CC1 [Example 89]	< 200	< 500
C[C@]1(C(N)=O)COc2c1cc([C@@](O)(CNC(=O)c1ccc(OC3CC3)c(OC3CC3)c1)C(F)(F)F)nc2-c1ccc(F)c(Cl)c1 [Example 90]	< 200	< 500
C[C@]1(C(N)=O)COc2c1cc([C@@](O)(CNC(=O)c1ccc(OC3CC3)c(OC3CC3)c1)C(F)(F)F)nc2-c1ccc(F)c(F)c1 [Example 91]	< 200	< 500
C[C@]1(C(N)=O)COc2c1cc([C@@](O)(CNC(=O)c1ccc(OC3CC3)c(OC3CC3)c1)C(F)(F)F)nc2-c1csc2c(F)cccc12 [Example 92]	< 200	< 500
C[C@]1(C(N)=O)COc2c1cc([C@@](O)(CNC(=O)c1ccc(OC3CC3)c(OC3CC3)c1)C(F)(F)F)nc2-c1ccc(C(F)(F)F)cc1 [Example 93]	< 200	> 500
C[C@]1(C(N)=O)COc2c1cc([C@@](O)(CNC(=O)c1ccc(OC3CC3)c(OC3CC3)c1)C(F)(F)F)nc2-c1ccc(C#N)cc1 [Example 94]	< 200	< 500
C[C@]1(C(N)=O)COc2c1cc([C@@](O)(CNC(=O)c1ccc(OC3CC3)c(OC3CC3)c1)C(F)(F)F)nc2-c1ccc(F)c(C#N)c1 [Example 95]	< 200	> 500
C[C@]1(C(N)=O)COc2c1cc([C@@](O)(CNC(=O)c1ccc(OC3CC3)c(OC3CC3)c1)C(F)(F)F)nc2-c1ccc(F)c(C(F)(F)F)c1 [Example 96]	< 200	< 500
Cc1cncc(-c2cc(C(=O)NC[C@](O)(c3cc4c(c(-c5ccc(F)cc5)n3)OC[C@]4(C)C(N)=O)C(F)(F)F)ccc2OC2CC2)c1 [Example 103]	< 200	> 500
C[C@]1(C(N)=O)COc2c1cc([C@@](O)(CNC(=O)c1ccc(OC3CC3)c(-c3cncc(C(F)(F)F)c3)c1)C(F)(F)F)nc2-c1ccc(F)cc1 [Example 104]	> 200	> 500
C[C@]1(C(N)=O)COc2c1cc([C@@](O)(CNC(=O)c1ccc(OC3CC3)c(-c3cccc(C(F)(F)F)n3)c1)C(F)(F)F)nc2-c1ccc(F)cc1 [Example 110]	< 200	> 500
C[C@]1(C(N)=O)COc2c1cc([C@@](O)(CNC(=O)c1ccc(OC3CC3)c(-c3cnccn3)c1)C(F)(F)F)nc2-c1ccc(F)cc1 [Example 114]	< 200	> 500
C[C@]1(C(N)=O)COc2c1cc([C@@](O)(CNC(=O)c1ccc(OC3CC3)c(-c3ccncn3)c1)C(F)(F)F)nc2-c1ccc(F)cc1 [Example 116]	< 200	> 500
C[C@]1(C(N)=O)COc2c1cc([C@@](O)(CNC(=O)c1ccc(OC3CC3)c(C3CC3)c1)C(F)(F)F)nc2-c1ccc(F)cc1 [Example 123]	< 200	> 500
C[C@]1(C(N)=O)COc2c1cc([C@@](O)(CNC(=O)c1ccc(OC3CC3)c(-c3ncco3)c1)C(F)(F)F)nc2-c1ccc(F)cc1 [Example 124]	< 200	> 500

Structure (SMILES)	EC50 [1] [nM]	EC50 [2] [nM]
Cc1ncc(-c2cc(C(=O)NC[C@](O)(c3cc4c(c(-c5ccc(F)cc5)n3)OC[C@]4(C)C(N)=O)C(F)(F)F)ccc2OC2CC2)s1 [Example 126]	< 200	> 500
C[C@]1(C(N)=O)COc2c1cc([C@@](O)(CNC(=O)c1ccc(OC3CC3)c(-c3ncccn3)c1)C(F)(F)F)nc2-c1ccc(F)cc1 [Example 127]	< 200	> 500
C[C@]1(C(N)=O)COc2c1cc([C@@](O)(CNC(=O)c1ccc(OC3CC3)c(N3CCC3)c1)C(F)(F)F)nc2-c1ccc(F)cc1 [Example 136]	< 200	> 500
Cc1ncc(-c2cc(C(=O)NC[C@](O)(c3cc4c(c(-c5ccc(F)cc5)n3)OC[C@]4(C)C(N)=O)C(F)(F)F)ccc2OC2CC2)cn1 [Example 137]	< 200	< 500
Cc1cnc(-c2ccc(C(=O)NC[C@](O)(c3cc4c(c(-c5ccc(F)cc5)n3)OC[C@]4(C)C(N)=O)C(F)(F)F)cc2OC2CC2)o1 [Example 179]	< 200	> 500
Cc1ncoc1-c1ccc(C(=O)NC[C@](O)(c2cc3c(c(-c4ccc(F)cc4)n2)OC[C@]3(C)C(N)=O)C(F)(F)F)cc1OC1CC1 [Example 180]	< 200	> 500
COc1cc(C(=O)NC[C@](O)(c2cc3c(c(-c4ccc(F)cc4)n2)OC[C@]3(C)C(N)=O)C(F)(F)F)ccc1-c1ocnc1C [Example 183]	< 200	> 500
Cc1nc(-c2ccc(C(=O)NC[C@](O)(c3cc4c(c(-c5ccc(F)cc5)n3)OC[C@]4(C)C(N)=O)C(F)(F)F)cc2OC2CC2)co1 [Example 196]	> 200	> 500
COc1cc(C(=O)NC[C@](C)(O)c2cc3c(c(-c4ccc(F)cc4)n2)OC[C@]3(C)C(N)=O)cc2cccnc12 [Example 219]	< 200	> 500
C[C@]1(C(N)=O)COc2c1cc([C@@](O)(CNC(=O)c1cc(Cl)c3ncccc3c1)C(F)(F)F)nc2-c1ccc(F)cc1 [Example 221]	< 200	< 500
COc1cc(C(=O)NC[C@](O)(c2cc3c(c(-c4ccc(F)cc4)n2)OC[C@]3(C)C(N)=O)C(F)(F)F)cc2ccc(C)nc12 [Example 222]	< 200	< 500
Cc1ccc2cc(C(=O)NC[C@](O)(c3cc4c(c(-c5ccc(F)cc5)n3)OC[C@]4(C)C(N)=O)C(F)(F)F)cc(OC3CC3)c2n1 [Example 223]	< 200	< 500
C[C@]1(C(N)=O)COc2c1cc([C@@](O)(CNC(=O)c1cc(OC3CC3)c3ncccc3c1)C(F)(F)F)nc2-c1ccccc1 [Example 228]	< 200	> 500
C[C@]1(C(N)=O)COc2c1cc([C@@](O)(CNC(=O)c1ccc3nnccc3c1)C(F)(F)F)nc2-c1ccc(F)cc1 [Example 230]	< 200	> 500
C[C@]1(C(N)=O)COc2c1cc([C@@](O)(CNC(=O)c1ccc3cnccc3c1)C(F)(F)F)nc2-c1ccc(F)cc1 [Example 232]	< 200	> 500
Cc1cnc2c(O)cc(C(=O)NC[C@](O)(c3cc4c(c(-c5ccc(F)cc5)n3)OC[C@]4(C)C(N)=O)C(F)(F)F)cc2c1 [Example 252]	< 200	> 500
COc1cc(C(=O)NC[C@](O)(c2cc3c(c(-c4ccc(F)cc4)n2)OC[C@]3(C)C(N)=O)C(F)(F)F)cc2cc(C)cnc12 [Example 255]	< 200	< 500
COc1cc(C(=O)NC[C@](O)(c2cc3c(c(-c4ccc(F)cc4)n2)OC[C@]3(C)C(N)=O)C2CC2)cc2cc(C)cnc12 [Example 256]	< 200	< 500
COc1cc(C(=O)NC[C@](O)(c2cc3c(c(-c4ccc(F)c(Cl)c4)n2)OC[C@]3(C)C(N)=O)C(F)(F)F)cc2cc(C)cnc12 [Example 257]	< 200	< 500
